For one series, the system named is LNCaP cells. The series is described as follows: Inhibition of LNCaP prostate carcinoma cell line proliferation (WST-1). It is filed as cell-based. The note with it: Homo sapiens, 48 h; cytotoxicity on LNCaP cells, two days incubation, WST-1 read-out. How it is done:
LNCaP cell line, a prostate carcinoma cell line, was grown in RPMI-1640 medium (Lonza, Belgium) supplemented with 10% fetal calf serum (Hyclone, US) and antibiotics. Exponential growing phase cells were seed in flat bottom 96-well microplates (TTP, Switzerland) at 10000 cells per well in 200 μl of medium. The day after, 20 μl of compounds (in different concentrations) were added and incubated for two days at 37° C., 5% CO2. After incubation, 100 μl of supernatant were removed and 10 μl of WST-1 (Roche, Switzerland) were added. After 2 hour incubation at 37° C., 5% CO2, optical densities were measured at 450 nm. Proliferation is calculated with respect of control points (no compound and treatment with Triton X100 to have maximum and minimum proliferation data). The IC50 was determined from a graph with at least four points, each derived from the mean of at least 2 experiments. […] The results are shown in Table 3 for a number of compounds.

A further series concerns HSB-2 cells. The series is described as follows: Inhibition of HSB-2 leukemic cell line proliferation (WST-1). It is filed as cell-based, human. Particulars: cytotoxicity on HSB-2 cells, two days incubation, WST-1 read-out. In short, it runs like this:
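HSB-2 human ALL cells, 50000/well in RPMI-1640 + 10% FCS, exposed to compounds 2 days at 37 °C, then WST-1 2 h, OD 450 nm. Proliferation scaled between untreated (max) and Triton X100 (min) controls; IC50 from ≥4-point curves, each point mean of ≥2 experiments.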

A further series concerns HL-60 cells. Description: Inhibition of HL-60 leukemic cell line proliferation (WST-1). The format is cell-based, human. The note with it: cytotoxicity on HL-60 cells, two days incubation, WST-1 read-out. In short, it runs like this: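 HL-60 cells, 50000/well, exposed to compounds for two days at 37 °C, then 2 h WST-1 with OD at 450 nm. Proliferation scaled between untreated and Triton X100 controls; IC50 from at least four points, each a mean of ≥2 experiments.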

The next series relates to hu EOL-1 leukemia. The note with it: for effect on tumour growth (tumour volume) relative to vehicle: s.c. EOL-1 tumours in NSG mice, therapy from day 10 to day 21. How it is done: The test compound (Example 222) was dissolved in DMSO (5% final concentration) and further solubilised in 0.5% Tween 80 in 1% methylcellulose. The resulting suspension was warmed for 10 minutes to 37° C. in an ultrasound water bath to obtain a homogeneous formulation for oral administration. At day 0, 24 male NSG mice received a s.c. inoculum of 10^7 EOL-1 cells taken from in vitro culture and mixed with 50% matrigel. At day 10 tumours were palpable, mice were randomized into three treatment groups and therapy initiated. The test compound (Example 222) and the vehicle were administered orally (p.o.) once daily until the end of the experiment. Cyclophosphamide was administered only once intraperitoneally (i.p.).

Where [1] appears, read: EOL-1 xenograft in NSG mice, Example 222 p.o. once daily, cyclophosphamide once i.p.
The mark [2] stands for this setting: Example 222 p.o. once daily, cyclophosphamide once i.p.

Structures are written as SMILES. Read-outs that look alike come from different tables or passages of the source.

Take `COc1ccc(OCC(=O)N2CCN(c3nc(N)nc4sc(-c5cccnc5)nc34)CC2)cc1` [Example 271, 1-(4-(5-amino-2-(pyridin-3-yl)thiazolo[5,4-d]pyrimidin-7-yl)piperazin-1-yl)-2-(4-methoxyphenoxy)ethanone]: the IC50 in the series with LNCaP cells was above 100000 nM; in the series on HSB-2 cells (Homo sapiens, HSB2, 48 h), 60 nM; in the series on HL-60 cells (Homo sapiens, 48 h), 100 nM.

`CC(C)(Oc1ccc(Cl)cc1)C(=O)N1CCN(c2nc(N)nc3sc(-c4cccnc4)nc23)CC1` [Example 274, 1-(4-(5-amino-2-(pyridin-3-yl)thiazolo[5,4-d]pyrimidin-7-yl)piperazin-1-yl)-2-(4-chlorophenoxy)-2-methylpropan-1-one]: the IC50 with LNCaP cells worked out at 18200 nM.

Consider `Cc1cccc(NC(=O)N2CCN(c3nc(N)nc4sc(-c5cccnc5)nc34)CC2)c1` [Example 276, 4-(5-amino-2-(pyridin-3-yl)thiazolo[5,4-d]pyrimidin-7-yl)-N-m-tolylpiperazine-1-carboxamide], for which the IC50 worked out at 3050 nM with LNCaP cells; 50 nM with HSB-2 cells (Homo sapiens, HSB2, 48 h); 60 nM with HL-60 cells (Homo sapiens, 48 h).

Turning to `O=P1(N(CCCl)CCCl)NCCCO1` (stereo not shown) [Cyclophosphamide, reference compound], in the series with hu EOL-1 leukemia (setting [1]), the body weight loss is 6% and the tolerability result was “well tolerated”. The “effect on tumour growth (tumour volume) relative to vehicle” value in the series on hu EOL-1 leukemia (setting [2]) is “highly significant (p<0.05) inhibition of tumour growth”.

`Cc1ccc(NC(=O)N2CCN(c3nc(N)nc4sc(-c5cccnc5)nc34)CC2)cc1` [Example 222, 4-(5-amino-2-(pyridin-3-yl)thiazolo[5,4-d]pyrimidin-7-yl)-N-p-tolylpiperazine-1-carboxamide]: the IC50 was determined as 2870 nM with LNCaP cells; 50 nM in the series with HSB-2 cells (Homo sapiens, HSB2, 48 h); 50 nM in the series on HL-60 cells (Homo sapiens, 48 h). Further, in the series on hu EOL-1 leukemia (EOL-1 xenograft in NSG mice, Example 222 p.o. once daily), the “behavioural changes or deaths” value is recorded as “did not lead to any behavioural changes or deaths”. For the same compound, the antileukemic activity result with hu EOL-1 leukemia (EOL-1 xenograft model, conclusion) is “significant antileukemic activity”. In the series with hu EOL-1 leukemia (mouse, in vivo), this compound displayed a body weight loss of 11%. In addition, the tolerability result in the series with hu EOL-1 leukemia (mouse, in vivo) was “well tolerated”. For the same compound, in the series with hu EOL-1 leukemia (setting [2]), the “effect on tumour growth (tumour volume) relative to vehicle” value is “moderate but significant (p<0.05) delay of tumour growth”.

As to `Cc1cccc(NC(=O)N2CCN(c3nc(N)nc4sc(-c5ccccc5)nc34)CC2)c1` [Example 220, 4-(5-amino-2-phenylthiazolo[5,4-d]pyrimidin-7-yl)-N-m-tolylpiperazine-1-carboxamide], the IC50 in the series with LNCaP cells is 11200 nM; with HSB-2 cells (Homo sapiens, HSB2, 48 h), 770 nM; in the series with HL-60 cells (Homo sapiens, 48 h), 920 nM.

Turning to `Cc1cccc(OCC(=O)N2CCN(c3nc(N)nc4sc(-c5cccnc5)nc34)CC2)c1` [Example 275, 1-(4-(5-amino-2-(pyridin-3-yl)thiazolo[5,4-d]pyrimidin-7-yl)piperazin-1-yl)-2-(m-tolyloxy)ethanone], the IC50 worked out at 1090 nM in the series on LNCaP cells; 70 nM with HSB-2 cells (Homo sapiens, HSB2, 48 h); 50 nM with HL-60 cells (Homo sapiens, 48 h).

As to `Nc1nc(N2CCN(C(=O)COc3ccc(Cl)cc3)CC2)c2nc(-c3cccnc3)sc2n1` [Example 121a, 5-amino-7-[4-(4-chlorophenoxyacetyl)piperazin-1-yl]-2-(pyridine-3-yl)thiazolo[5,4-d]pyrimidine], the IC50 in the series on LNCaP cells worked out at 48000 nM; in the series on HSB-2 cells (Homo sapiens, HSB2, 48 h), 200 nM; with HL-60 cells (Homo sapiens, 48 h) it was 230 nM.

`Cc1cccc(OCC(=O)N2CCN(c3nc(N)nc4sc(-c5ccco5)nc34)CC2)c1` [Example 210, 1-(4-(5-amino-2-(furan-2-yl)thiazolo[5,4-d]pyrimidin-7-yl)piperazin-1-yl)-2-(m-tolyloxy)ethanone]: the IC50 with HSB-2 cells (Homo sapiens, HSB2, 48 h) was determined as 480 nM; in the series on HL-60 cells (Homo sapiens, 48 h) it was 390 nM.

On to `CCOc1nc(N)nc2sc(-c3ccc(F)cc3)cc12` [Example 363, 4-ethoxy-6-(4-fluorophenyl)thieno[2,3-d]pyrimidin-2-amine], for which the melting point was 142 °C.

With `Nc1nc(N2CCN(C(=O)COc3ccc(OC(F)(F)F)cc3)CC2)c2nc(-c3cccnc3)sc2n1` [Example 273, 1-(4-(5-amino-2-(pyridin-3-yl)thiazolo[5,4-d]pyrimidin-7-yl)piperazin-1-yl)-2-(4-trifluoromethoxyphenoxy)ethanone], the IC50 was 810 nM in the series on HSB-2 cells (Homo sapiens, HSB2, 48 h) and 4840 nM in the series on HL-60 cells (Homo sapiens, 48 h).

For the compound `Cn1c(-c2ccc(F)cc2)nc2c(N3CCN(C(=O)COc4ccc(Cl)cc4)CC3)nc(N)nc21` [Example 430, 1-(4-(2-amino-8-(4-fluorophenyl)-9-methyl-9H-purin-6-yl)piperazin-1-yl)-2-(4-chlorophenoxy)ethanone], the IC50 was 3500 nM in the series with HSB-2 cells (Homo sapiens, HSB2, 48 h) and 990 nM in the series with HL-60 cells (Homo sapiens, 48 h).

With `Nc1nc(N2CCN(C(=O)COc3ccccc3)CC2)c2cc(-c3ccccc3)sc2n1` [Example 332, 1-(4-(2-amino-6-phenylthieno[2,3d]pyrimidin-4-yl)piperazin-1-yl)-2-phenoxyethanone], the figures for the IC50 in the series on HSB-2 cells and with HL-60 cells were 5500 nM and above 10000 nM, respectively.

As for `Nc1nc(N2CCN(C(=O)Nc3ccccc3)CC2)c2nc(-c3cccnc3)sc2n1` [Example 440, 4-(5-amino-2-(pyridin-3-yl)thiazolo[5,4-d]pyrimidin-7-yl)-N-phenylpiperazine-1-carboxamide], the IC50 with LNCaP cells worked out at 17100 nM; with HSB-2 cells (Homo sapiens, HSB2, 48 h), 58 nM; in the series on HL-60 cells (Homo sapiens, 48 h), 64 nM.

On to `Nc1nc(N2CCN(C(=O)COc3ccc(Cl)cc3)CC2)c2nc(C3(c4ccc(Cl)cc4)CC3)sc2n1` [Example 117, 5-amino-7-[4-(4-chlorophenoxyacetyl)piperazin-1-yl]-2-(1-(4-chlorophenyl)cyclopropyl)thiazolo[5,4-d]pyrimidine], for which the IC50 with HSB-2 cells (Homo sapiens, HSB2, 48 h) is 6280 nM; in the series with HL-60 cells (Homo sapiens, 48 h), above 10000 nM.

In the case of `Cc1ccc(-c2nc3c(N4CCN(C(=O)COc5ccc(Cl)cc5)CC4)nc(N)nc3[nH]2)cc1` [Example 396, 1-(4-(2-amino-8-p-tolyl-9H-purin-6-yl)piperazin-1-yl)-2-(4-chlorophenoxy)ethanone], the IC50 with HSB-2 cells (Homo sapiens, HSB2, 48 h) is 490 nM; in the series on HL-60 cells (Homo sapiens, 48 h) it was 4970 nM.
